{
  "source": "patent US10253007B2",
  "about": "“Taxanes compounds, preparation method therefor, and uses thereof” (Jiangsu Tasly Diyi Pharmaceutical Co., Ltd., priority 2013, dated 2019)",
  "key": {"A2780 ovarian cancer": {"system": "A2780 ovarian cancer", "experiment": "MTT assay, proliferation inhibition", "format": "cell-based", "conditions": "Homo sapiens, read-out: Proliferation inhibition rate", "from_the_text": "(§1) 1. Cytotoxicity Assay Using Human Tumor Cell Lines\n(§2) Paclitaxel was used as the positive drug."}, "A375 melanoma": {"system": "A375 melanoma", "experiment": "MTT assay, proliferation inhibition", "format": "cell-based", "conditions": "Homo sapiens, A-375, read-out: Proliferation inhibition rate", "from_the_text": "as §1, §2"}, "[1]": {"system": "A549 non-small cell lung cancer", "experiment": "MTT assay, proliferation inhibition", "format": "cell-based", "conditions": "Homo sapiens, read-out: Proliferation inhibition rate", "from_the_text": "as §1, §2"}, "B16 melanoma": {"system": "B16 melanoma", "experiment": "MTT assay, proliferation inhibition", "format": "cell-based", "conditions": "read-out: Proliferation inhibition rate", "from_the_text": "as §1, §2"}, "BGC-823 gastric cancer": {"system": "BGC-823 gastric cancer", "experiment": "MTT assay, proliferation inhibition", "format": "cell-based", "conditions": "Homo sapiens, read-out: Proliferation inhibition rate", "from_the_text": "as §1, §2"}, "DU145 prostate cancer": {"system": "DU145 prostate cancer", "experiment": "MTT assay, proliferation inhibition", "format": "cell-based", "conditions": "Homo sapiens, DU-145, read-out: Proliferation inhibition rate", "from_the_text": "as §1, §2"}, "HCT 116 colon cancer": {"system": "HCT 116 colon cancer", "experiment": "MTT assay, proliferation inhibition", "format": "cell-based", "conditions": "Homo sapiens, read-out: Proliferation inhibition rate", "from_the_text": "as §1, §2"}, "HT29 colon cancer": {"system": "HT29 colon cancer", "experiment": "MTT assay, proliferation inhibition", "format": "cell-based", "conditions": "Homo sapiens, HT-29, read-out: Proliferation inhibition rate", "from_the_text": "as §1, §2"}, "HeLa cervical cancer": {"system": "HeLa cervical cancer", "experiment": "MTT assay, proliferation inhibition", "format": "cell-based", "conditions": "Homo sapiens, read-out: Proliferation inhibition rate", "from_the_text": "as §1, §2"}, "K562 leukemia": {"system": "K562 leukemia", "experiment": "MTT assay, proliferation inhibition", "format": "cell-based", "conditions": "Homo sapiens, read-out: Proliferation inhibition rate", "from_the_text": "as §1, §2"}, "LNCaP prostate cancer": {"system": "LNCaP prostate cancer", "experiment": "MTT assay, proliferation inhibition", "format": "cell-based", "conditions": "Homo sapiens, read-out: Proliferation inhibition rate", "from_the_text": "as §1, §2"}, "[2]": {"system": "breast cancer cell line MCF-7", "experiment": "IC50 values on breast cancer cell line MCF-7", "format": "cell-based", "conditions": "Homo sapiens, MCF7, 72 h, read-out: MCF-7(IC50, nM)", "method_in_brief": "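MCF-7 human breast cancer cells exposed to compounds for 72 h, with paclitaxel as positive control. IC50 from three independent repeats with replicate wells.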"}, "[3]": {"experiment": "In vivo oral bioavailability assay (pharmacokinetics)", "parameters": "species or system S.D. rats", "conditions": "rat; for AUC(0-t): 0-24 hours; for MRT inf: read-out: MRT0-∞", "from_the_text": "3. In Vivo Oral Bioavailability Assay\nThe compound PCMI-31 was synthesized and detected according to the methods provided in the present invention. The internal standard, paclitaxel, was purchased from China's National Institute for the Control of Pharmaceutical and Biological Products (NICPBP). Chromatography-grade acetonitrile was purchased from Sigma-Aldrich Inc. Tween 80 and ethyl acetate were purchased from Aladdin reagent Inc. Male S.D. rats were purchased from Beijing Weitonglihua Inc. and raised in animal house for two weeks.\n200 mg of PCMI-31 was dissolved in 4 ml of a mixed solution of Tween 80 and anhydrous ethanol (1:1) to prepare a stock solution at 50 mg/ml and normal saline was added to adjust to a suitable concentration. 12 male S.D. rats (about 300 g of body weight) were taken and divided into two groups after overnight fasting. One group was treated with intravenous injection (5 mg/kg) and the other group was treated orally (60 mg/kg). Blood was sampled in the intravenous group at 0th min, 5th min, 10th min, 20th min, 40th min, 1st h, 2nd h, 4th h, 6th h, 8th h, 12th h, 24th h, while the oral group at 5th min, 15th min, 30th min, 45th min, 1st h, 2nd h, 4th h, 6th h, 8th h, 12th h, 24th h. After 10 min centrifugation of plasma at 4500 rpm, the upper serum was taken and transferred to the corresponding EP tube, placed in a −40° C. freezer for assay.\nAgilent 1100 series configuration: Agilent G1313A HPLC autosampler device, 150 mm×2.1 mm C18 Thermo column (particle size 3 μm) reversed-phase column, detection wavelength at 230 nm, column temperature at 30° C., mobile phase of acetonitrile/water (7:3), a flow rate at 0.2 ml/min, injection volume of 20 μl. The mass spectrometry (MS) combined was Thermo Finnigan TSQ Quantum triple quadrupole configurated with electrospray ionization (ESI) in the positive ion mode. The parameters of MS analysis were as follows: spray chamber voltage, 4.0 kv; heated capillary temperature, 350° C.; protective gas (nitrogen); 20 psi; auxiliary gas (nitrogen): 5 psi; collision gas (argon); pressure: 1.5 mmTorr.; Collision energy: CA 17 eV; FA and IFA were 19 eV: IS was 15 eV.\nPaclitaxel was selected as an internal standard with a retention time of 3.07 min. Retention time of PCMI-31 was 4.21 min. MS detection condition to PCMI-31 was set as follows: 915→634 m/z; paclitaxel as an internal standard. Detection conditions: 876→308m/z. The concentration range of the standard curve of PCMI-31 was 5-10,000 ng/ml (γ^2>0.99) and the minimum detection limit was 5 ng/ml.\n100 μL of plasma samples were taken, into which 100 μL of the internal standard (paclitaxel, 500 ng/ml acetonitrile solution) was added, followed by addition of 3 ml of ethyl acetate after well homogenized via vortex, after 5 min shaking, centrifuging for 8 min at a rotating speed of 4500 rpm. The supernatant was transferred to a clean EP tube with nitrogen to blow to dry under heating condition. After reconstitution with 120 μl mobile phase (CH3CN/H2O=7:3), the solution was centrifuged at 12,000 rpm for 3 min, 100 μl of supernatant was taken and transferred to an autosampler vial. After LC-MS/MS detection, statistical data and pharmacokinetic parameters were processed by Xcallbur® (version 1.3) software (Thermo Finnigan)."}, "[4]": {"experiment": "Caco-2 cell monolayer membrane transport assay", "conditions": "human; for recovery: Caco-2, Recovery rate in mass", "text": "(§3) Caco-2 Cell Monolayer Membrane Transport Assay\n(§4) Human-derived colorectal adenocarcinoma cell line Caco-2 cell monolayer model was used to study the bidirectional transport of the target compounds from the apical (AP) side to the basolateral (BL) side and from BL side to AP side. HPLC was used for quantitative analysis to calculate transport parameters, apparent permeability coefficient (Papp) and the efflux ratio."}, "Caco-2 cell monolayer": {"system": "Caco-2 cell monolayer", "experiment": "Caco-2 cell monolayer membrane transport assay", "conditions": "Caco-2 monolayer", "text": "as §3, §4"}, "[5]": {"conditions": "male, S.D., plasma, intravenous administration 5 mg/kg"}, "[6]": {"conditions": "male, S.D., plasma, oral administration 60 mg/kg"}},
  "note": "“Also recorded” adds a separate entry of the source. Like-named read-outs stand apart in the source and are kept apart here.",
  "data": [
    {"compound": "CO[C@H]1C(=O)[C@]2(C)[C@@H](OC(=O)N(C)C)C[C@H]3OC[C@@]3(OC(C)=O)[C@H]2[C@H](OC(=O)c2ccccc2)[C@]2(O)C[C@H](OC(=O)[C@H](O)[C@@H](NC(=O)OC(C)(C)C)c3ccccc3)C(C)=C1C2(C)C", "note": "[PCMI-31]", "values": [
      {"measurement": "inhibition at 1 µM", "setting": "A2780 ovarian cancer", "result": 95.6, "unit": "%"},
      {"measurement": "inhibition at 1 µM", "setting": "A375 melanoma", "result": 88.4, "unit": "%"},
      {"measurement": "inhibition at 1 µM", "setting": "[1]", "result": 76, "unit": "%"},
      {"measurement": "inhibition at 1 µM", "setting": "B16 melanoma", "result": 81.8, "unit": "%"},
      {"measurement": "inhibition at 1 µM", "setting": "BGC-823 gastric cancer", "result": 96.2, "unit": "%"},
      {"measurement": "inhibition at 1 µM", "setting": "DU145 prostate cancer", "result": 85.8, "unit": "%"},
      {"measurement": "inhibition at 1 µM", "setting": "HCT 116 colon cancer", "result": 60.7, "unit": "%"},
      {"measurement": "inhibition at 1 µM", "setting": "HT29 colon cancer", "result": 89.4, "unit": "%"},
      {"measurement": "inhibition at 1 µM", "setting": "HeLa cervical cancer", "result": 103, "unit": "%"},
      {"measurement": "inhibition at 1 µM", "setting": "K562 leukemia", "result": 93.2, "unit": "%"},
      {"measurement": "inhibition at 1 µM", "setting": "LNCaP prostate cancer", "result": 82.2, "unit": "%"},
      {"measurement": "IC50", "setting": "[2]", "result": "9.63 ± 0.12", "unit": "nM"},
      {"measurement": "half-life", "setting": "[3]; male, S.D., plasma, other: oral or intravenous administration, generally, oral or intravenous administration, read-out: half-life (converted)", "result": "~3", "unit": "h"},
      {"measurement": "AUC(0-t)", "setting": "[3]; male, S.D., plasma, intravenous 5 mg/kg", "result": "3310 ± 1330", "unit": "ng·h/mL"},
      {"measurement": "AUC(0-inf)", "setting": "[3]; [5]", "result": "3320 ± 1330", "unit": "ng·h/mL"},
      {"measurement": "Cmax", "setting": "[3]; [5]", "result": "7990 ± 3470", "unit": "ng/mL"},
      {"measurement": "Tmax", "setting": "[3]; [5]", "result": 0, "unit": "h"},
      {"measurement": "MRT inf", "setting": "[3]; [5]", "result": "2.58 ± 0.87", "unit": "h"},
      {"measurement": "half-life", "setting": "[3]; male, S.D., plasma, intravenous administration 5 mg/kg, read-out: t1/2 (converted)", "result": "3.21 ± 0.53", "unit": "h"},
      {"measurement": "AUC(0-t)", "setting": "[3]; male, S.D., plasma, oral 60 mg/kg", "result": "4250 ± 2480", "unit": "ng·h/mL"},
      {"measurement": "AUC(0-inf)", "setting": "[3]; [6]", "result": "4270 ± 2490", "unit": "ng·h/mL"},
      {"measurement": "Cmax", "setting": "[3]; [6]", "result": "922 ± 561", "unit": "ng/mL"},
      {"measurement": "Tmax", "setting": "[3]; [6]", "result": "0.8 ± 0.2", "unit": "h"},
      {"measurement": "MRT inf", "setting": "[3]; [6]", "result": "4.33 ± 0.74", "unit": "h"},
      {"measurement": "half-life", "setting": "[3]; male, S.D., plasma, oral administration 60 mg/kg, read-out: t1/2 (converted)", "result": "2.97 ± 0.55", "unit": "h"},
      {"measurement": "bioavailability", "setting": "[3]; male, S.D., plasma, oral, 60 mg/kg, oral 60 mg/kg vs intravenous 5 mg/kg, read-out: F, absolute oral bioavailability", "result": 10.7, "unit": "%"},
      {"measurement": "F, absolute oral bioavailability", "setting": "[3]; oral 60 mg/kg vs intravenous 5 mg/kg", "result": 10.71, "unit": "%"},
      {"measurement": "Papp B→A", "setting": "[4]; Caco-2", "result": 26, "unit": "×10⁻⁶ cm/s"},
      {"measurement": "efflux ratio", "setting": "[4]; Caco-2", "result": 1.73},
      {"measurement": "Papp A→B", "setting": "[4]; Caco-2, Papp A-B, Caco-2 cell line (21 days), bidirectional transport, Table 5", "result": 15, "unit": "×10⁻⁶ cm/s"},
      {"measurement": "Papp A→B", "setting": "[4]; Caco-2, Papp A-B, Mean, Caco-2, A-B, mean of two samples", "result": 10.6, "unit": "×10⁻⁶ cm/s"},
      {"measurement": "Papp A→B", "setting": "[4]; Caco-2, Papp A-B, Sample-01, Caco-2, A-B, Sample-01", "result": 11.2, "unit": "×10⁻⁶ cm/s"},
      {"measurement": "Papp A→B", "setting": "[4]; Caco-2, Papp A-B, Sample-02, Caco-2, A-B, Sample-02", "result": 9.91, "unit": "×10⁻⁶ cm/s"},
      {"measurement": "Papp A→B", "setting": "[4]; Caco-2, Papp A-to-B, Caco-2", "result": "> 10", "unit": "×10⁻⁶ cm/s"},
      {"measurement": "recovery", "setting": "[4]; Mean, Caco-2, A-B, mean of two samples", "result": 86.8, "unit": "%"},
      {"measurement": "recovery", "setting": "[4]; Sample-01, Caco-2, A-B, Sample-01", "result": 83, "unit": "%"},
      {"measurement": "recovery", "setting": "[4]; Sample-02, Caco-2, A-B, Sample-02", "result": 90.6, "unit": "%"},
      {"measurement": "membrane permeability (in words)", "setting": "Caco-2 cell monolayer", "result": "highly permeable substrates; also recorded: highest membrane permeability"}
    ]}
  ]
}
